In assay [1] the test system is Caco-2. The assay can be described thus: Cell membrane permeability for the compound determined by human Caco-2 monolayer assay (10e-5 cm/min). Type of assay: functional. (In general: Caco-2 cells form a polarised layer with tight junctions and transporters.)
In assay [2] the test system is Caco-2. The assay can be described thus: Substrate affinity was determined; passive. In kind it is functional, cell-based. Particulars: Homo sapiens.
Assay [3] has as its system Caco-2. Nature of the assay: Computed polar surface area (PSA) for the compound […]. In kind it is functional.

`COc1ccc(-c2cn(Cc3ccccc3)c3ccc(O)nc23)cc1`: the Pm with Caco-2 [1] was 90.5 10e-5*cm/min. Further, the Affinity result in the assay with Caco-2 [2] was “passive”. Also, in the assay on Caco-2 [3], the “3D PSA” value is reported as 45.
As for `Oc1ccc2c(n1)c(-c1ccccc1)cn2Cc1ccccc1`, in the assay with Caco-2 [3], the “3D PSA” value came out at 33.4.
The same measure, in the same setting: for `Nc1ncnc2c1c(-c1ccccc1)cn2Cc1ccccc1` the value was 46.6.
`COc1ccc(Cn2cc(-c3ccc(OC)cc3)c3c(N)ncnc32)cc1`: in the assay with Caco-2 [1], the Pm is 61.9 10e-5*cm/min. Moreover, the Affinity entry in the assay on Caco-2 [2] is listed as “passive”. The “3D PSA” value in the assay with Caco-2 [3] stood at 69.2.
The corresponding values for `COc1ccc(Cn2cc(-c3ccc(OC)cc3)c3nc(O)ccc32)cc1` are 83 10e-5*cm/min, “passive” and 55.1.
On to `COc1ccc(-c2cn(Cc3ccccc3)c3ncnc(N)c23)cc1`, for which the Pm in the assay with Caco-2 [1] is listed as 78.2 10e-5*cm/min. In addition, the Affinity entry in the assay with Caco-2 [2] is given as “passive”. The “3D PSA” value with Caco-2 [3] turned out to be 58.2.

Source of the values: ChEMBL document CHEMBL1134094, “Cell permeability as a parameter for lead generation in the protein Tyrosine kinase inhibition field” (2001).
